# Literature values in patent US20100152480A1 (priority 2008, published 2010).
# Assays:
# [1] = system: gram positive bacteria (Arthrobacter oxydans, Bacillus cereus var mycoide, Bacillus subtilis, Bacillus megaterium, Clostridium perfringens, Listeria …); conditions: listed gram positive species; known from prior art
# [2] = system: gram negative bacteria (Alcaligenes faecalis, Bordetella bronchiseptica, Citrobacter freundii, Citrobacter intermedium, Enterobacter aerogenes, Escherichia …); conditions: listed gram negative species; known from prior art
# [3] = system: moulds and yeast (Aspergillus niger, Aureobasidium pullulans, Cladosporium cladosporioides, Gliocadium virens, Chaetonium globosum, Penicillium chrysogenum …); conditions: listed moulds and yeasts; known from prior art
# [4] = 20° C.
substance,measurement,setting,value
ethyl-Na-dodecanoyl-Larginate HCl [Ethyl lauroyl arginate],effectiveness against gram positive bacteria,[1],effective
same,effectiveness against gram negative bacteria,[2],effective
same,effectiveness against moulds and yeast,[3],effective
same,solubility in water,[4],greater than 247 g/kg
